From US20130316963A1, “INNATE DEFENCE REGULATORY PEPTIDE COMPOSITIONS FOR TREATMENT OF ARTHRITIS” (UNIVERSITY OF MANITOBA, priority 2010, published 2013)

Columns and labels:
Format in all cases: cell-based
[1] = test system: p38 MAPK; assay: p38 MAPK activity assay (immunoprecipitation, ATF-2 Thr76 phosphorylation immunoblot) in human FLS cells; conditions: IL-1β 10 ng/ml 15 min; IDR-1002 100 μg/ml 45 min prior to or at time of stimulation; FIG. 9
Procedure: (§1) Human FLS cells (5×10^4/ml) were seeded in a total volume of 20 ml per 75 cm^2 tissue culture flask in complete DMEM media containing 10% FBS for each condition. The cells were allowed to adhere overnight. Following day the media was changed to 10 ml complete DMEM containing 1% FBS. The cells were either un-stimulated or treated with IL-1β (10 ng/ml) in the presence or absence of IDR-1002 (100 μg/ml) for 15 min. IL-1β is known to induce JNK activation, and also p38 MAPK activity, after 15 min in FLS cells. Peptide IDR-1002 (100 μg/ml) was added either 45 min prior to, or at the time of stimulation with IL-1β. Total protein concentration was evaluated for each cell lysate employing micro BCA (Thermo Scientific). Kinase activities specific to JNK and to p38-MAPK were monitored employing the JNK activity assay kit and the p38 MAPK assay kit (Abcam Inc., Calif., USA) following the manufacturer's instructions. For JNK, 50 μg of total protein per cell lysate was used for immunoprecipitation employing a JNK-specific antibody. The eluate was treated with c-Jun substrate and ATP mixture. Subsequent phosporylation of c-Jun was evaluated by probing immunoblots with anti-phospho-c-Jun (Ser73) specific antibody. […] Subsequent phosporylation of ATF-2 was evaluated by probing immunoblots with a phospho-ATF-2 (Thr76) specific antibody. […]

[2] = test system: JNK; assay: JNK activity assay (immunoprecipitation, c-Jun Ser73 phosphorylation immunoblot) in human FLS cells; conditions: IL-1β 10 ng/ml 15 min; IDR-1002 100 μg/ml 45 min prior to or at time of stimulation; FIG. 8
Procedure: as §1

[3] = test system: human FLS cells; assay: IL-IRA production in human FLS cells stimulated with IL-1β (ELISA); conditions: 48 hr, FIG. 5
Procedure: Tissue culture supernatants were harvested from human FLS cells after stimulation for 48 hr with IL-1β with and without IDR-1002. The supernatants were centrifuged at 1500×g for 7 min to obtain cell-free samples. The samples were aliquoted and stored at −20° C. until further use. Production of IL-IRA in the tissue culture supernatants was monitored using Quantikine® human […] ELISA following the manufacturer's instructions. […] Results shown are an average of at least three independent biological experiments performed with cells isolated from synovial tissues obtained from independent donors±standard error (*p<0.05, **p<0.01).

[4] = test system: Human macrophage-like THP-1 cells; assay: TNF-α and IL-1β production in IL-32-stimulated THP-1 cells (ELISA); conditions: 24 hr; for reduction of IL-32-induced TNF-α production: FIG. 7A; for reduction of IL-32-induced IL-1β production: FIG. 7B
Procedure: Human macrophage-like THP-1 cells were stimulated for 24 hr with pro-inflammatory cytokine IL-32 (20 ng/ml) in the presence and absence of IDR-1002 (10 or 20 μM). The tissue culture supernatants were monitored for the production of pro-inflammatory cytokines TNF-α and IL-1β after 24 hr by ELISA as described previously.

With VQRWLIVWRIRK (IDR-1002 peptide) the “IL-1β-induced p38 MAPK activity and phosphorylation of ATF-2 (Thr76)” value [1] was “abrogated”, the “IL-1β-induced JNK activity and phosphorylation of c-Jun (Ser73)” value [2] was “abrogated” and the “IL-IRA production with IL-1β in the presence of IDR-1002, relative to IL-1β in the presence of IDR-1” value [3] was “more than twice as much IL-IRA”. The “IL-IRA production with IL-1β in the presence of IDR-1002, relative to IL-1β alone” value ([3]; IL-1β alone about 150 pg/ml) was “more than twice as much IL-IRA”, the “IL-IRA production by IDR-1002 alone” value ([3]; no IL-1β) was “did not stimulate production of IL-IRA” and the “reduction of IL-32-induced TNF-α production” value ([4]; 10 μM IDR-1002, IL-32 20 ng/ml) was 40%. The “reduction of IL-32-induced IL-1β production” value ([4]; 10 μM IDR-1002, IL-32 20 ng/ml) was “about 40%”, the “reduction of IL-32-induced TNF-α production” value ([4]; 20 μM IDR-1002, IL-32 20 ng/ml) was “about 70%” and the “reduction of IL-32-induced IL-1β production” value ([4]; 20 μM IDR-1002, IL-32 20 ng/ml) was “about 65%”.
